Holding throughout (assay): NCI tumour cell line growth inhibition, 48 h
The subject of assay [1] is 786-0 renal.
For assay [2], the system named is CCRF-CEM leukemia.
Assay [3] has as its system EKVX NSCLC.
Assay [4] deals with HL-60(TB) leukemia.
The subject of assay [5] is MALME-3M melanoma.
Assay [6] relates to NCI/ADR-RES ovarian.
The test system of assay [7] is SK-MEL-5 melanoma.
Assay [8] concerns SNB-75 CNS.
Assay [9] concerns SR leukemia.
The subject of assay [10] is UACC-62 melanoma.

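Cells were grown in 96-well plates and exposed to each compound for 48 hours at five concentrations; endpoints were interpolated linearly between bracketing concentrations, or set to the highest concentration if not reached. GI50 is the concentration that inhibits growth by half. At the TGI there is no net growth.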

With `CCN1/C(=C/C=C/c2n(-c3ccccc3)c3ccc(-c4nc5ccccc5s4)cc3[n+]2CC)N(c2ccccc2)c2ccc(-c3nc4ccccc4s3)cc21`, the GI50 is 0.602 µM in assay [1]; 2.69 µM in [2]; 0.387 µM in assay [3]; 0.464 µM in assay [4]; 0.161 µM in assay [5]; 3.55 µM in [6]. The GI50 in assay [7] was 0.184 µM; in assay [8], 0.347 µM; in assay [9], 1.4 µM; in assay [10], 0.97 µM. In addition, the TGI in [1] is over 50 µM; in [2], over 50 µM; in assay [3], over 50 µM; in assay [4] it was over 50 µM; in [5], 0.838 µM; in [6], over 50 µM. Further, the TGI is 1.27 µM in assay [7], over 46.7 µM in [8], over 50 µM in [9] and over 50 µM in assay [10].

As to `Nc1ccccc1-c1ccc([N+](=O)[O-])cc1`, the GI50 is 9.16 µM in [1]; 2.31 µM in [2]; 8.58 µM in assay [3]; 2.93 µM in assay [4]; 16.5 µM in [5]; 26.2 µM in assay [6]. Further, the GI50 in assay [7] was 2.58 µM; in [8], over 100 µM; in [9], 29 µM; in assay [10], 0.756 µM. Also, the TGI was over 100 µM in [1]; over 100 µM in assay [2]; over 100 µM in assay [3]; 26.1 µM in assay [4]; over 100 µM in assay [5]; over 100 µM in assay [6]. In addition, the TGI in assay [7] is over 100 µM; in assay [8], over 100 µM; in assay [9], over 100 µM; in assay [10], 19.4 µM.

As for `Cn1ccnc1C(=O)/C=C/c1ccc(C(=O)Nc2ccc(S(F)(F)(F)(F)F)cc2)cc1`, the GI50 in assay [1] is 3.86 µM; in [2], 0.738 µM; in assay [3], 0.953 µM; in assay [4] it was 0.945 µM; in assay [5], 5.76 µM; in assay [6] it was 1.52 µM. The GI50 in [7] was 0.603 µM; in assay [8] it was 0.761 µM; in [9], 0.391 µM; in [10], 2.28 µM. For the same compound, the TGI is over 14.3 µM in assay [1]; over 14.3 µM in assay [2]; over 14.3 µM in assay [3]; 5.49 µM in [4]; over 14.3 µM in assay [5]; over 14.3 µM in [6]. Moreover, the TGI was 5.99 µM in [7], over 14.3 µM in assay [8], 10.3 µM in assay [9] and over 14.3 µM in assay [10].

`Fc1ccc(-c2nn3c(-c4ccc(F)c(Cl)c4)nnc3s2)cc1`: the GI50 was 35.3 µM in [1]; 5.52 µM in assay [2]; over 50 µM in assay [3]; 27.4 µM in [4]; over 50 µM in assay [5]; 23.8 µM in assay [6]. The GI50 in [7] is 44.2 µM; in [8], 11.3 µM; in [9], 43.8 µM; in [10], 34.8 µM. Also, the TGI was over 50 µM in assay [1]; 17.8 µM in assay [2]; over 50 µM in [3]; over 50 µM in assay [4]; over 50 µM in [5]; over 50 µM in assay [6]. Moreover, the TGI in [7] was over 50 µM; in assay [8], 30.4 µM; in assay [9] it was over 50 µM; in assay [10] it was over 50 µM.

Take `CC(C)Nc1ccc(Nc2ccccc2)cc1`: the GI50 in assay [1] is 17.8 µM; in assay [2], 12.5 µM; in [3], 12.8 µM; in [4], 17.7 µM; in assay [5] it was 14.9 µM; in [6], 9.8 µM. In addition, the GI50 in assay [7] is 11.4 µM; in [8], 21.5 µM; in assay [9], 15.7 µM; in assay [10], 11.6 µM. The TGI is over 100 µM in assay [1]; over 100 µM in assay [2]; 44.7 µM in assay [3]; 51.3 µM in assay [4]; 43.2 µM in assay [5]; 65.3 µM in [6]. The TGI in [7] is 24.9 µM; in assay [8] it was over 100 µM; in [9], 49.3 µM; in assay [10], 51.6 µM.

`N=C(N)c1ccc(OCCOCCOc2ccc(C(=N)N)cc2)cc1`: the GI50 is over 100 µM in assay [1]; 1 µM in [2]; over 100 µM in assay [3]; over 100 µM in assay [4]; 39.5 µM in [5]; over 100 µM in assay [6]. For the same compound, the GI50 is 33.1 µM in assay [7], over 100 µM in assay [8], 31.7 µM in assay [9] and over 100 µM in [10]. For the same compound, the TGI in assay [1], in assay [2], in [3], in assay [4], in [5] and in assay [6] was over 100 µM in each case. The TGI in assay [7], in [8], in assay [9] and in [10] was over 100 µM each time.

For the compound `CCCCCc1nc2c(c3c1CCCC3)CCCC2`, the GI50 was 13.4 µM in assay [1]; 11.1 µM in assay [2]; 4.21 µM in [3]; 5.8 µM in [4]; 11.3 µM in assay [5]; 3.91 µM in assay [6]. Besides, the GI50 in assay [7] is 6.19 µM; in assay [8], 13.3 µM; in [9], 15.7 µM; in assay [10], 12.1 µM. The TGI is 27.8 µM in [1]; 43.2 µM in assay [2]; 26.9 µM in assay [3]; 29.4 µM in assay [4]; 25.7 µM in [5]; 22.6 µM in assay [6]. Besides, the TGI came out at 18.8 µM in assay [7], 51.7 µM in [8], 45.1 µM in assay [9] and 29.2 µM in assay [10].

Regarding `CN(Cc1ccc(Cl)cc1)c1ccc(CO)c(Cl)c1`, the GI50 was 3.82 µM in [1]; 15.1 µM in assay [2]; 13.5 µM in assay [3]; 5.28 µM in [4]; 13.4 µM in assay [5]; 8 µM in [6]. In addition, the GI50 in [7] is 5.42 µM; in assay [8] it was 7.06 µM; in [9], 13.1 µM; in assay [10], 0.33 µM. The TGI is 17 µM in assay [1]; over 66.3 µM in assay [2]; 35.3 µM in [3]; 42.4 µM in assay [4]; 29.2 µM in assay [5]; 25.4 µM in assay [6]. For the same compound, the TGI turned out to be 17.3 µM in assay [7], 26.4 µM in assay [8], 54.8 µM in [9] and 2.2 µM in [10].

For `Cc1cc2cc3cc(C)c(N(C)C)cc3[n+](C)c2cc1N(C)C`, the GI50 was 5.1 µM in [1]; 12.2 µM in [2]; 3.22 µM in assay [4]; 3.6 µM in assay [5]; 22.4 µM in assay [6]; 2.1 µM in assay [7]. For the same compound, the GI50 is 3.7 µM in [8], 3.16 µM in assay [9] and 4.91 µM in assay [10]. The TGI in assay [1] was 18.8 µM; in [2], over 100 µM; in [4], over 100 µM; in [5], 19.4 µM; in [6] it was over 100 µM; in [7], 6.96 µM. In addition, the TGI in assay [8] was 31.4 µM; in assay [9] it was over 100 µM; in assay [10], 23.6 µM.

As for `O=C(Nc1ccc(F)cc1)Nc1ccccc1CNc1nc(Nc2ccc(OCCN3CCCC3)cc2)ncc1Cl`, the GI50 in assay [1] was 0.92 µM; in assay [2], 1.6 µM; in [3], 2.22 µM; in [4], 1.07 µM; in assay [5], 0.81 µM; in [6] it was 2.59 µM. Moreover, the GI50 in assay [7] was 1.55 µM; in assay [8], 0.677 µM; in [9], 1.81 µM; in assay [10] it was 0.968 µM. Further, the TGI in assay [1] is 1.77 µM; in assay [2], 5.93 µM; in [3], 9.82 µM; in assay [4], 2.31 µM; in [5] it was 1.55 µM; in assay [6] it was 10.4 µM. Further, the TGI was found to be 4.98 µM in assay [7], 1.35 µM in assay [8], 50 µM in [9] and 2.04 µM in assay [10].

Turning to `CC(C)[C@H]1CC[C@H]2[C@@H](CC[C@H]3[C@](C)(CN)CCC[C@]23C)C1`, the GI50 is 1.82 µM in assay [1]; 3.42 µM in assay [2]; 4.11 µM in [3]; 1.8 µM in assay [4]; 2.48 µM in assay [5]; 2.08 µM in assay [6]. Also, the GI50 is 4.87 µM in assay [7], 6.95 µM in assay [8], 2.65 µM in assay [9] and 3.38 µM in assay [10]. The TGI worked out at 3.24 µM in [1]; 12.8 µM in assay [2]; 17 µM in assay [3]; 4.23 µM in [4]; 7.47 µM in assay [5]; 3.93 µM in assay [6]. For the same compound, the TGI in assay [7] was 17.3 µM; in assay [8], 21.3 µM; in assay [9], 15.2 µM; in assay [10], 14.3 µM.

As to `Cc1ccc(NC(=O)Cc2ccc(/C=C/C(=O)c3ncc[nH]3)cc2)cc1`, the GI50 is 4.28 µM in [1]; 4.67 µM in assay [2]; 13.5 µM in assay [3]; 5.88 µM in assay [4]; over 25 µM in assay [5]; 6.73 µM in assay [6]. In addition, the GI50 in [7] was 18.3 µM; in [8], 7 µM; in [9], 0.992 µM; in assay [10], 8.29 µM. In addition, the TGI in [1], in assay [2], in [3], in [4], in assay [5] and in [6] was over 25 µM in each case. The TGI in assay [7], in [8], in [9] and in assay [10] was over 25 µM in each case.

`Nc1cc(C(=O)O)[nH]c(=O)n1`: the TGI in [1], in assay [2], in assay [3], in assay [4], in [5] and in [6] was over 100 µM throughout. Also, the TGI in assay [7], in assay [9] and in assay [10] was over 100 µM each time.

Consider `CC/C(=C(/c1ccc(OCCN(C)C)cc1)c1ccc(OC(=O)CCC(=O)c2c(C)[nH]c(/C=C3\N=C(c4ccc[nH]4)C=C3OC)c2C)cc1)c1ccccc1`, for which the GI50 in assay [1] was 2.19 µM; in [2], 0.435 µM; in assay [4], 3.13 µM; in assay [5] it was 2.68 µM; in assay [6] it was 3.62 µM; in [7], 1.31 µM. Moreover, the GI50 is 2.45 µM in assay [8], 0.694 µM in assay [9] and 1.81 µM in assay [10]. For the same compound, the TGI in [1] was 5.73 µM; in [2], 6.34 µM; in assay [4] it was 8.8 µM; in assay [5], 6.35 µM; in assay [6] it was 15.9 µM; in assay [7], 2.62 µM. Besides, the TGI in [8] was determined as 9.86 µM; in assay [9] it was 5.38 µM; in assay [10] it was 3.78 µM.

With `Clc1ccc(/C=C/c2cc(N3CCOCC3)c3cc(Cl)c(Cl)cc3n2)cc1`, the GI50 is 1.37 µM in assay [1]; 0.302 µM in assay [2]; 0.339 µM in assay [4]; over 100 µM in assay [5]; over 100 µM in assay [6]; over 100 µM in [7]. Besides, the figures for the GI50 in assay [8], in [9] and in assay [10] were over 100 µM, 14.9 µM and over 100 µM, respectively. Further, the TGI was over 100 µM in assay [1]; over 51 µM in assay [2]; over 100 µM in [4]; over 100 µM in assay [5]; over 100 µM in assay [6]; over 100 µM in [7]. Further, the TGI was over 100 µM in assay [8], over 61.8 µM in assay [9] and over 100 µM in assay [10].

Source of the values: PubChem BioAssay (NCI).
